# Experimental data taken from patent US20230068010A1, “FORMULATION OF INSECTICIDAL MIXTURES COMPRISING GLYCOL ETHER SOLVENTS” (Bayer Aktiengesellschaft, priority 2019, published 2023).
# Test: Cuticle penetration test
# Assay type: in vitro ADME, apple tree
# Text: This test measures the penetration of active ingredients through enzymatically isolated cuticles of apple tree leaves.
# Leaves that have been cut off apple trees in the developed state and isolated by the method described in Schönherr and Riederer (Schönherr, J., Riederer, M. (1986)) are used. Only the cuticles of the top sides of the leaves that are free of stomata and hair are used further.
# For membrane transport studies, the cuticular membranes thus obtained are placed into stainless steel diffusion cells (=transport chambers). For this purpose, the cuticles are placed with tweezers onto the middle of the silicone grease-smeared edges of the diffusion cells and sealed with a likewise greased ring. The arrangement is chosen such that the morphological outside of the cuticles is directed outward, i.e. toward the air, while the original inside faces the inside of the diffusion cell. The diffusion cells are filled with water or with a mixture of water and solvent and buffered to the physiologically relevant pH of 5.5. The medium in the diffusion cells is supposed to simulate the apoplast, i.e. the natural absorption medium within the leaf. This method is of good suitability for systemic and mechanistic studies with the aim of understanding the effect of the formulations, adjuvants and solvents on penetration of the crop protection compositions.
# The active ingredient concentration corresponds to the field application rate customary in practice. For preparation of the spray liquor the corresponding ingredients in the given amounts are given into tap water and homogenized by mixing.
# After the spray liquors have been applied, the water is allowed to evaporate in each case, then the chambers are inverted and they are placed into thermostated tanks, wherein air at a defined air humidity and temperature is blown onto the outside of the cuticles in each case. The penetration that sets in therefore takes place at a relative air humidity of 56% and a set temperature of 25° C. At regular intervals, an autosampler is used to take samples and the content of penetrated active ingredient is measured by means of HPLC. The numbers reported are average values from 5 to 10 individual measurements in each case.
smiles,measurement,setting,value
O=C1C=C(N(Cc2ccc(Cl)nc2)CC(F)F)CO1 [Flupyradifurone],Penetration after 24 h,"entry 1: spray solution 0.1 g/L Compd I-2 + 0.5 g/L flupyradifurone, no additives, 25° C., 56% r.h.",5.1%
same,Penetration after 24 h,"entry 1: spray solution 0.1 g/L Compd I-2 + 0.5 g/L flupyradifurone, no additives, 25° C., 56% r.h., listed as flupyradifurone","barely any, if any, cuticle penetration"
same,Penetration after 24 h,"entry 2: 0.1 g/L Compd I-2 + 0.5 g/L flupyradifurone + DAHP 1.6 g/L, 25° C., 56% r.h.",29.2%
same,Penetration after 24 h,"entry 3: 0.1 g/L Compd I-2 + 0.5 g/L flupyradifurone + Antarox B/848 1.3 g/L, 25° C., 56% r.h.",73%
same,Penetration after 24 h,"entry 4: 0.1 g/L Compd I-2 + 0.5 g/L flupyradifurone + Antarox B/848 1.3 + DAHP 1.6 g/L, 25° C., 56% r.h.",82.8%
same,Penetration after 24 h,entry 5: as entry 4 + 1.8 g/L Propylenglycolmonomethylether (B) + 1.8 g/L Propylenglycol (C),87.2%
same,Penetration after 24 h,entry 6: as entry 4 + 1.8 g/L Propylenglycolmonomethylether (B) + 1.8 g/L Dipropylenglycol (D),100%
same,Penetration after 24 h,entry 7: as entry 4 + 2.1 g/L Dipropylenglycolmonomethylether (A) + 1.4 g/L Propylenglycolmonomethylether (B),100%
same,Penetration after 24 h,entry 8: as entry 4 + 2.5 g/L Dipropylenglycolmonomethylether (A) + 1.2 g/L Propylenglycol (C),95%
